The series can be described thus: Pharmacokinetic study, bioavailability of folic acid encapsulated in zein nanoparticles. Format: in vivo, male Wistar rats. Conditions: male, Wistar; for bioavailability: serum, rat, read-out: FR (relative bioavailability in percentage); for AUC: read-out: AUC (×10^4) (converted). Here is the method: The pharmacokinetic studies were carried out according to the rules of the ethics committee of the Institution as well as the European laws on experimental animals (86/609/EU). To that end, 20 male Wistar rats with an average weight of 200 g were subjected to normal conditions of light-darkness (12 hours-12 hours), and during the week before the study they were fed with a folic acid-deficient feed (Folic Acid Deficient Diet. TD. 95247. Harlan, USA) and water. Twelve hours before the administration of the formulations, the rats were isolated in metabolic cages without access to food, but with free access to drinking water.
The animals were divided into 4 treatment groups (5 rats per group). Only 1 mL of PBS (Phosphate Buffer, pH 7.4) was orally administered to the first of the group. The two following groups were treated with single oral doses of 1 mg/kg (200 μg/rat) of folic acid (Aditio, Panreac Quimica, Barcelona, Spain) incorporated in zein nanoparticles, or in free form (not encapsulated) dissolved in water. 1 mL of each of the different formulations dispersed in water was administered through a gastroesophageal cannula. Finally, the same dose of free folic acid (1 mg/kg) dissolved in phosphate buffer (PBS) (0.5 mL) was intravenously administered to the fourth group in the saphenous vein. Before the administration of the formulations, blood was extracted from the tail saphenous vein for the purpose of checking the baseline level of the vitamin in each rat. After the administration, a volume of blood of approximately 500 μL was extracted at different times using serum-separating tubes ([…] Microtube 1.1 mL Z-Gel). In all the cases, to prevent the pain of the rats, the extraction was carried out after anesthetizing the animal with inhalational anesthesia (isoflurane:oxygen), checking their vital signs at all times.
The blood volume was subsequently replaced by intraperitoneally administering 500 μL of physiological saline previously heated to the temperature of the animal. During this period, the condition of the animals (mobility, aggressiveness, allergic reactions and temperature) was examined, no significant changes being observed.
The quantification of folic acid in the serum samples, obtained after centrifuging the tubes with blood (6,000 rpm, 20 minutes, 20° C.), was carried out by means of an enzyme immunoassay technique. To that end, an Elisa Kit (Diagnostic automation, INC. Calabasas, Calif. USA) approved by the FDA for the quantitative determination of folic acid in foods, was used. The serum samples were quantified without prior treatment and following the manufacturer's specifications.
In all the studied cases, the differences in the serum folic acid concentrations found by both methods were less than 10%. Therefore, the enzyme immunoassay technique was chosen to quantify all the samples, since it requires a smaller amount of serum for the analysis thereof and is a simpler and quicker technique, the limit of detection of which (2 ng/mL) is much lower than that of the chromatographic technique.
The pharmacokinetic study was divided into three phases. The first of them consisted of intravenously administering 1 mg/kg of folic acid dissolved in phosphate buffer; the second of them consisted of orally administering to the rats 1 mL of phosphate buffer (PBS) to a group of 5 male Wistar rats (the baseline levels of the vitamin over time were studied in this group of rats). Finally, the third phase consisted of orally administering 1 mg/kg of (i) folic acid dissolved in water, (ii) folic acid encapsulated in zein nanoparticles to groups of rats formed by 5 animals.
After the administration, a volume of blood of approximately 500 μL was extracted at different times (0, 1, 2, 3, 8 and 24 hours) and collected in serum-separating tubes, subsequently recovering the blood volume of the animal with an equivalent volume of saline by intraperitoneal route. […]

Setting [1] is: rat serum, intravenous route, 1 mg/kg folic acid in PBS, mean ± SD, n = 5.
[2] abbreviates: rat serum, oral route, 1 mg/kg folic acid, mean ± SD, n = 5.

Each structure is given as a SMILES string. Read-outs that look alike come from different tables or passages of the source.

The bioavailability is the share of a dose that reaches the circulation, judged against a reference dose that is usually intravenous. What is called Cmax is the highest concentration seen after dosing. Broadly, the MRT is the average time that molecules of a dose stay in the body. In general, AUC refers to concentration integrated over time. For orientation: Tmax means the time at which the peak concentration occurs.

For the compound `Nc1nc2ncc(CNc3ccc(C(=O)N[C@@H](CCC(=O)O)C(=O)O)cc3)nc2c(=O)[nH]1` [Non-encapsulated FA, folic acid], the bioavailability (intravenous route, 1 mg/kg folic acid in PBS) was found to be 100%. Further, under “oral route, 1 mg/kg folic acid, mean ± SD, n = 5”, the bioavailability stood at 36.3 ± 7.2%. Under setting [1], the Cmax turned out to be 4230 ± 1650 ng/mL, the MRT is 57.8 min and the AUC is 3580 ng·h/mL. Moreover, under setting [2], the highest level (Cmax) was 191 ± 41 ng/mL, the MRT is 384 min, the Tmax is 58.8 min and the AUC was 1300 ng·h/mL.

(Values after patent publication US9381252B2, “Nanoparticles for encapsulation of compounds, the production and uses thereof” (UNIVERSIDAD DE NAVARRA, priority 2010, dated 2016).)
